Literature values, collected in US20080102081A1, “Preparations and applications for treatment of high cholesterol levels” (priority 2006, published 2008).

Assays:
[1] = denominator of prescription volume
[2] = clinical trials, patients at lower dosages

Compound: COCc1c(C(C)C)nc(C(C)C)c(/C=C/[C@@H](O)C[C@@H](O)CC(=O)O)c1-c1ccc(F)cc1 [Cerivastatin]
- fatal rhabdomyolysis rate [1]: 3.16 fatal cases/million prescriptions

Compound: CC(C)c1c(C(=O)Nc2ccccc2)c(-c2ccccc2)c(-c2ccc(F)cc2)n1CC[C@@H](O)C[C@@H](O)CC(=O)O [Atorvastatin]
- elevation of hepatic enzyme activity [2]: 0.7%
